Laboratory results from patent US20090082341A1 (SYNOSIA THERAPEUTICS, priority 2007, published 2009).
“Also recorded” adds a separate entry of the source.

How the values were obtained:
A2A receptors in the rat = molecular target: T1, A2A receptors in the rat (Rattus norvegicus, UniProt P30543); assay: Radioligand binding assay, rat A2A receptor; settings: read-out: pKi, rat A2A receptor (converted)
T1 construct: made in house; host or cells: CHO cells, Semliki Forest virus expression system

adenosine transporter = assay: Selectivity radioligand binding panel, adenosine transporter; settings: at 10 μM
Source text: See FIG. 22-25 for general procedures of binding assays. See FIG. 26-32 for experimental conditions of binding assays.
The specific ligand binding to the receptors is defined as the difference between the total binding and the nonspecific binding determined in the presence of an excess of unlabelled ligand.
Individual and mean values are presented in the results section. The IC50 values (concentration causing a half-maximal inhibition of control specific binding) and Hill coefficients (nH) were determined by non-linear regression analysis of the competition curves using Hill equation curve fitting.
The inhibition constants (Ki) were calculated from the Cheng Prusoff equation (Ki=IC50/(1+(L/KD)), where L=concentration of radioligand in the assay, and KD=affinity of the radioligand for the receptor).

male Sprague Dawley rats = assay: Elevated plus-maze test; assay type: in vivo, rat
Procedure: Animals are placed in the center of an elevated maze containing two closed and two open arms. The time spent in the open arms of the maze, together with the number of times the animals enter the open arms of the maze, are taken as indices of the level of neophobic anxiety of these animals.
Levels of anxiety were determined by the time spent and the distance traveled in the open arms of the maze. Data are mean±SEM based on 12 animals per group. […] FIG. 5: SEM: standard error of the mean. Results are based on 11 animals. […] Data analyzed with a paired t-test.
Adult male Sprague Dawley rats weighing approximately 200 g at the start of the experiment were used. They were housed in groups of four in Macrolon Type 3 cages (810 cm^2) with sawdust bedding. The animals were maintained on a 12:12 h light-dark cycle with light onset at 6 am., with free access to tap water and food (Promikliba Kaiseraugst, Switzerland). Room temperature (21-23° C.) and humidity (55-65%) were kept constant.
The elevated plus-maze consisted of two open arms perpendicular to two closed arms (each arm was 10 cm wide×50 cm long) extending from a small open central area. The apparatus was constructed from grey polyvinylchloride plastic and placed 50 cm above the floor. […] The apparatus was situated in a sound-attenuated observation room with controlled illumination (200 lux on the central platform of the plus-maze). Rats were tested in a randomized order. The test started by placing the animal on the central platform facing a closed arm. The duration of the test was 5 minutes. 70% ethanol was used to clean the apparatus prior to the introduction of each animal.
The plus-maze was positioned in the middle of a closed black environment with the animal observed via a closed circuit video camera mounted above the maze. Behavioral analysis was conducted using a computerized system (Ethovision, Noldus Information Technology, The Netherlands).
Each treatment group consisted of 9 to 12 rats. Each animal was used only for a single experiment. […] After drug administration, rats were isolated in small cages without sawdust and water. After one hour, they were placed in the plus-maze.
The measures selected to represent anxiolytic-like behavior was the time spent (sec) within the open arms, the distance traveled (cm) within the open arms, and the number of transitions between the central platform and the open arms. The measure used to quantify motor activity was the distance traveled per second (speed) within the closed arms.
The compounds were administered p.o. (gavage) in a volume of 5 ml/kg body weight. Control animals received equal volume injections of vehicle.
A p-value lower than 0.05 was considered significant. The effects of chlordiazepoxide were analysed using a t-test.

male Wistar rats = assay: Passive avoidance test, scopolamine-induced amnesia; assay type: in vivo, rat
Source text: This test relies on training rodents to avoid an aversive event (electric shock) by curbing a normal behavior, and at specified intervals after training, testing the animals for retention of such learning.
Adult rats were trained in a step-down test to avoid foot shock by remaining on a plastic platform. […] Amnesia was induced by administering scopolamine subcutaneously (sc) given immediately post-training.
The protocol to generate FIG. 6 data are as follows: Adult rats (n=16/dose group) were trained to avoid foot shock by remaining on a plastic platform in a step-down test. […] Amnesia was induced by administration of scopolamine sc at 1 mg/kg immediately post-training. Retention, measured as the % of rats with correct responses, was assessed 2 h post-training.
Male adult Wistar rats (HanBrl: WIST (SPF); RCC Füllinsdorf) weighing approximately 94-113 g were used. The animals were housed in groups of four in Macrolon Type 3 cages (810 cm^2) with sawdust bedding. Tap water and standard laboratory chow (Ratte Alleinfutter, extrudat No 3436; Provimikliba Kaiseraugst, Switzerland) were continuously available except during testing. The animal quarters were maintained on a 12:12 hr light-dark cycle with light onset at 6 a.m. […]
Two hours after the training and the post-training treatment, each rat was evaluated for retention of the passive avoidance response in the retention test. […]

[1] = 3, 10 and 30 mg/kg po, vs vehicle

T1 sequence (P30543 whole entry): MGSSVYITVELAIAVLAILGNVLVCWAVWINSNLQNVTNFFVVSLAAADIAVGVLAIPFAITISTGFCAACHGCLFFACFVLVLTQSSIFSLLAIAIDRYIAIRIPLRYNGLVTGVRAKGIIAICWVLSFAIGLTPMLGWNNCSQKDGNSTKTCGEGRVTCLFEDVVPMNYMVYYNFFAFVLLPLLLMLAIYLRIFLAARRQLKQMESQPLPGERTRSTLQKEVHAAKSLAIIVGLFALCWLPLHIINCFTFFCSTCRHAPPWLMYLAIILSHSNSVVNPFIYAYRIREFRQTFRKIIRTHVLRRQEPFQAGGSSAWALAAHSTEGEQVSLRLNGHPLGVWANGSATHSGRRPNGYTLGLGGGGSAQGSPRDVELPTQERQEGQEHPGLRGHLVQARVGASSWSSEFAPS

## COc1ccc(N2CCOCC2)c2sc(NC(=O)N3CCC(C)(O)CC3)nc12 [4-hydroxy-4-methyl-piperidine-1-carboxylic acid (4-methoxy-7-morpholin-4-yl-benzothiazol-2-yl)-amide]
A2A receptors in the rat
  Ki: 20 nM
Adenosine transporter
  displacement at the adenosine transporter: 55%
Male Sprague Dawley rats; [1]
  distance traveled in open arms: dose-dependent increase; also recorded: significantly and dose-dependently increased
  entries into the open arms: dose-dependent increase; also recorded: significantly and dose-dependently increased
  speed in the closed arms: increased speed in the closed arms reaching statistical significance at 10 and 30 mg/kg
  time spent in the open arms: significant dose-dependent increase; also recorded: significantly and dose-dependently increased
Male Sprague Dawley rats; po
  dose of maximal effect, all parameters measured: 30 mg/kg
  lowest dose that reached statistical significance, distance traveled in the open arms: 30 mg/kg
  lowest dose that reached statistical significance, open arm entries: 10 mg/kg
  lowest dose that reached statistical significance, time spent in the open arms: 30 mg/kg
Male Wistar rats; 100 mg/kg po + scopolamine 1 mg/kg sc, 2 h post-training, scopolamine + vehicle 12.5%
  proportion of scopolamine-treated animals exhibiting passive avoidance retention (correct responses): 43.75%
Male Wistar rats; 3, 10, 30 and 100 mg/kg po immediately post-training
  reversal of the scopolamine-induced retention deficit: dose-dependent and statistically significant at the highest dose tested (100 mg/kg po); also recorded: dose-dependent reversal
